In ChEMBL document CHEMBL1201862, “PubChem BioAssay data set” (2004):
Calls of active or inactive are those of the source.

Key:
Troponin, cardiac muscle = Troponin, cardiac muscle (Homo sapiens, UniProt P19429+P45379+P63316); assay: compounds desensitizing RTF to calcium – biochemical, fluorescence, cardiac regulated thin filaments, triplicate IC50, dose response (AID 504742); type: protein-complex assay
INS1 = assay: INS-1E survival protection against cytokine death – cell-based, luminescence, retest, dose response (AID 449756); type: functional; details: Rattus norvegicus;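 further: cell death triggered by IL-1 beta plus TNF-alpha plus IFN-gamma mixture; protective hits raise ATP signal compared with cytokine alone wells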
[1] = NIH-3T3 fibroblast cytotoxicity, dose response, cytotoxicity control, cell-based, fluorescence, Alamar Blue, secondary assay (AID 2327); type: functional;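 further: NIH-3T3 mouse fibroblasts cultured with fluconazole at 8 µg/mL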
[2] = target: T1, Serine/threonine-protein phosphatase (Candida dubliniensis (strain CD36 / CBS 7987 / NCPF 3949 / NRRLY-17841) (Yeast), UniProt B9W6M3); assay: blockers of CaCl2-induced CDRE-lacZ signaling – S. cerevisiae, luminescence, secondary, dose response (AID 2388); type: functional, cell-based;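 further: yeast reporter cells carrying a calcineurin-responsive lacZ construct stimulated with calcium chloride; luminescent beta-galactosidase reporter signal in whole cells rather than isolated phosphatase activity; potency for inhibition where a drop in reporter signal means calcineurin blockade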
T1 sequence (B9W6M3 whole entry): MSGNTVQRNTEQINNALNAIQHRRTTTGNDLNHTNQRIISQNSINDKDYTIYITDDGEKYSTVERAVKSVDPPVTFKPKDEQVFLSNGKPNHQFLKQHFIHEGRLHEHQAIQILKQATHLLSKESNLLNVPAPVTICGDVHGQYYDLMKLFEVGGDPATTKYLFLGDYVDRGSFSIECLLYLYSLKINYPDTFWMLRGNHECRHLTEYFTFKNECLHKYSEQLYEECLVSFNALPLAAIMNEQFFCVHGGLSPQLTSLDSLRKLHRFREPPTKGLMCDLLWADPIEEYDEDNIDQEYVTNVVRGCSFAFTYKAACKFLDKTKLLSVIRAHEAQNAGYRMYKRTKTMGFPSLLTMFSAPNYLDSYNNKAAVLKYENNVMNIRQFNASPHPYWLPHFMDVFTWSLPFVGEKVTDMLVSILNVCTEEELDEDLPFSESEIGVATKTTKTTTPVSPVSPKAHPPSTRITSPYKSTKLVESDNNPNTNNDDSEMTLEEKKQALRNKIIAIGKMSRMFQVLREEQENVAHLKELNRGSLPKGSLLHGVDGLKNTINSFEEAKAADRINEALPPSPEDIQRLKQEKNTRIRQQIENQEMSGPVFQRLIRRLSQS

[3] = target: NACHT, LRR and PYD domains-containing protein 1 (Homo sapiens, UniProt Q9C000); assay: NALP1 inhibitors in yeast, dose response, luminescent (AID 488860); type: functional
[4] = fluconazole-exposed Candida albicans growth modulators – fluorescence, retest, confirmation (AID 2467); type: functional, cell-based
Saccharomyces cerevisiae = assay: S. cerevisiae Caspase-1/ASC signal blockers IC50, NALP1 inhibitor project selectivity test (AID 488863); type: functional, organism-based
[5] = target: ATP-dependent molecular chaperone HSP82 (Candida albicans (strain WO-1) (Yeast), UniProt C4YTQ8); assay: steroid-induced GRE reporter decrease in yeast – S. cerevisiae, luminescence, Hsp90 inhibitor project, dose response (AID 2400); type: functional, cell-based;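 further: beta-galactosidase luminescence from glucocorticoid response element reporter as proxy for Hsp90 function; inhibitor potency where signal loss means Hsp90 inhibition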
Caspase-3 = target: T2, Caspase-3 (Homo sapiens, UniProt P42574); assay: activators of human procaspase-3 D3A mutant – biochemical, absorbance, PC-3 D3A mutant, counter-screen for dual procaspase-3/7 activator project, dose response (AID 504328)
T2 sequence (P42574 whole entry): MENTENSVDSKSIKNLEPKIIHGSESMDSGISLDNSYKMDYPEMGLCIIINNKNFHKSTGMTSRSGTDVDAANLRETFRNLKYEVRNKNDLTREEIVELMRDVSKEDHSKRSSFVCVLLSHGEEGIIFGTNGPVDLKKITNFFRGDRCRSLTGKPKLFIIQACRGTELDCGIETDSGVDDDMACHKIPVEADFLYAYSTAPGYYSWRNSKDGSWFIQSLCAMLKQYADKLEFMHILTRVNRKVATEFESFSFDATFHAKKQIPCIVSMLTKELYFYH

Caspase-7 = Caspase-7 (Homo sapiens, UniProt P55210); assay: potency of procaspase-7 enzyme activation – biochemical, absorbance, human, dual procaspase-3/-7 activator project, dose response (AID 504330)
[6] = target: Glyceraldehyde-3-phosphate dehydrogenase (Homo sapiens, UniProt P04406)
[7] = target: T3, Alkaline phosphatase, tissue-nonspecific isozyme (Homo sapiens, UniProt P05186); assay: potency against alkaline phosphatase TNAP – biochemical, luminescent, dose response, SAR follow-up (AID 1056)
T3 sequence (P05186 whole entry): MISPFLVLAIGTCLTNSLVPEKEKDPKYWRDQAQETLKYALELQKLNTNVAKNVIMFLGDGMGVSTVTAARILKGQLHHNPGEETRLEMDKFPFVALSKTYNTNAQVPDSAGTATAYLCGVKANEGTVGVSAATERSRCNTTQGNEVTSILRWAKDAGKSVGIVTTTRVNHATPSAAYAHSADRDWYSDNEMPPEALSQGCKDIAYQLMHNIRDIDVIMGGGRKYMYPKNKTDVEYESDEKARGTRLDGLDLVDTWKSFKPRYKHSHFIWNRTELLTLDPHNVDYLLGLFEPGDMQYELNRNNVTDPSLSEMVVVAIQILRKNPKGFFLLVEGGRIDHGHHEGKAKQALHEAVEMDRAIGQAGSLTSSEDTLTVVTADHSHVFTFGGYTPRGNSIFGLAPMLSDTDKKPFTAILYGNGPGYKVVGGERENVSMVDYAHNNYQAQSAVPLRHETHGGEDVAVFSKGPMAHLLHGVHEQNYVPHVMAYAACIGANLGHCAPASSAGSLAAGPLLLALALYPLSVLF

[8] = target: Alkaline phosphatase, placental type (Homo sapiens, UniProt P05187); assay: human placental alkaline phosphatase inhibition – biochemical, luminescence, confirmation (AID 1512); type: functional

Q: Which results are given for `COc1cccc(/C=N/Nc2nc3ccccc3n3cnnc23)c1O`?
A: IC50 (Troponin, cardiac muscle): 7.6 µM (active); AC50 (INS1): 1.84 µM (active)

Q: Which EC50 [1] does the source give for `Cc1cc2ccccn2c1C(C[N+](=O)[O-])c1c(F)cccc1Cl` (stereo not drawn) here?
A: > 160 µM (inactive)

Q: What about the EC50 [2] of the same molecule?
A: 45.4 µM (active)

Q: And the IC50 [3]?
A: 7.92 µM (active)

Q: What about the EC50 [4] of the same molecule?
A: 0.421 µM (active)

Q: And the IC50 (Saccharomyces cerevisiae)?
A: 6.44 µM (active)

Q: And the EC50 [5]?
A: 4.47 µM (active)

Q: Which EC50 (Caspase-3) does the source give for `COc1ccc2c(c1OC)C(=O)OC2CC(=O)c1ccc(N(C)C)cc1` (stereo not drawn) here?
A: > 85.3 µM (inactive)

Q: And the EC50 (Caspase-7)?
A: > 85.3 µM (inactive)

Q: Which results are given for `COc1ccc(-c2cc(-c3ccc4ccccc4c3O)n[nH]2)cc1`?
A: IC50 [6]: > 100 µM (not active); IC50 [7]: > 100 µM (inactive); IC50 [8]: > 100 µM (inactive)
